Data taken from BindingDB's records for doi:10.1016/j.ejmech.2021.113780 (Shandong University, 2021).

Assay: Inhibition of capsid protein in HBV infected in human HepDES19 cells assessed as inhibition of viral replication incubated for 3 days by strand preferential qPCR analysis

Row | SMILES | EC50
1 | CCOC(=O)C1=C(CN2CC3(CC2=O)CN(C(=O)OC(C)(C)C)C3)NC(c2nccs2)=NC1c1ccc(F)cc1Br (centres undefined) | 13.3 µM
2 | CCOC(=O)C1=C(CN2CCC3(CCN(C(=O)OC(C)(C)C)C3)C2=O)NC(c2nccs2)=NC1c1ccc(F)cc1Br (centres undefined) | 5.17 µM
3 | CCOC(=O)C1=C(CN2CC3(CCN(C(=O)OC(C)(C)C)C3)CC2=O)NC(c2nccs2)=NC1c1ccc(F)cc1Br (centres undefined) | 10 µM
4 | CCOC(=O)C1=C(CN2CCC3(CNC(=O)C3)C2)NC(c2nccs2)=NC1c1ccc(F)cc1Br (centres undefined) | 2.6 µM
5 | CCOC(=O)C1=C(CN2CCC3(CC2)CNC(=O)C3)NC(c2nccs2)=NC1c1ccc(F)cc1Br (centres undefined) | 3.8 µM
6 | CCOC(=O)C1=C(CN2CCC3(CC2)CNC3=O)NC(c2nccs2)=NC1c1ccc(F)cc1Br (centres undefined) | 1.17 µM
7 | CCOC(=O)C1=C(CN2CCC3(CC(=O)N(Cc4ccccc4)C3=O)C2)NC(c2nccs2)=NC1c1ccc(F)cc1Br (centres undefined) | 2.1 µM
8 | CCOC(=O)C1=C(CN2CCC3(CC2)OCCO3)NC(c2nccs2)=NC1c1ccc(F)cc1Br (centres undefined) | 0.2 µM
9 | CCOC(=O)C1=C(CN2CCC3(CC2)CN(C(=O)OC(C)(C)C)C3)NC(c2nccs2)=NC1c1ccc(F)cc1Br (centres undefined) | 10.4 µM
10 | CCOC(=O)C1=C(CN2CCC3(CCN(C(=O)OC(C)(C)C)C3)C2)NC(c2nccs2)=NC1c1ccc(F)cc1Br (centres undefined) | 4.83 µM
11 | CCOC(=O)C1=C(CN2CCC3(C2)CN(C(=O)OC(C)(C)C)C3)NC(c2nccs2)=NC1c1ccc(F)cc1Br (centres undefined) | 8.83 µM
12 | CCOC(=O)C1=C(CN2CCC3(CCNC3=O)CC2)NC(c2nccs2)=NC1c1ccc(F)cc1Br (centres undefined) | 3.43 µM
13 | CCOC(=O)C1=C(CN2CCC3(CC2)CC(=O)NC3=O)NC(c2nccs2)=NC1c1ccc(F)cc1Br (centres undefined) | 0.68 µM
14 | Nc1ccn([C@@H]2CS[C@H](CO)O2)c(=O)n1 [Epivir] | 0.37 µM
